Values joined by “and” are separate entries in the source; they are usually repeats but may differ in a detail not shown here. Equal values may be shown once. Inconclusive results and toxic doses are left out. Rule as the data show it: active = T/C of 150% or more; inactive = T/C below 125%.
System: L1210 leukemia ip in BDF1 mice, survival T/C
Assay: NCI In Vivo Anticancer Drug Screen. Data for tumor model L1210 Leukemia (intraperitoneal) in B6D2F1 (BDF1) mice
Conditions: endpoint: mean survival time, higher = longer survival
Method in brief: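 Survival endpoint. Drug-treated group vs vehicle group, expressed as T divided by C. Tumor passaged by transplantation.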

[1] = dose: 100.0 mg/kg/injection, schedule: Q04DX002 (ip), vehicle: Klucel (hydroxypropylcellulose) (HPC)
[2] = dose: 200.0 mg/kg/injection, schedule: Q04DX002 (ip), vehicle: Klucel (hydroxypropylcellulose) (HPC)
[3] = dose: 400.0 mg/kg/injection, schedule: Q04DX002 (ip), vehicle: Klucel (hydroxypropylcellulose) (HPC)
[4] = dose: 100.0 mg/kg/injection, schedule: Q01DX009 (ip), vehicle: saline with Tween-80
[5] = dose: 100.0 mg/kg/injection, schedule: Q04DX003 (ip), vehicle: saline with Tween-80
[6] = dose: 200.0 mg/kg/injection, schedule: Q01DX009 (ip), vehicle: saline with Tween-80
[7] = dose: 200.0 mg/kg/injection, schedule: Q04DX003 (ip), vehicle: saline with Tween-80
[8] = dose: 400.0 mg/kg/injection, schedule: Q04DX003 (ip), vehicle: saline with Tween-80
[9] = dose: 200.0 mg/kg/injection, schedule: Q01DX001 (ip), vehicle: saline
[10] = dose: 100.0 mg/kg/injection, schedule: Q01DX001 (ip), vehicle: other
[11] = dose: 100.0 mg/kg/injection, schedule: Q01DX009 (ip), vehicle: Klucel (hydroxypropylcellulose) (HPC)
[12] = dose: 100.0 mg/kg/injection, schedule: Q04DX003 (ip), vehicle: Klucel (hydroxypropylcellulose) (HPC)
[13] = dose: 200.0 mg/kg/injection, schedule: Q01DX001 (ip), vehicle: other
[14] = dose: 200.0 mg/kg/injection, schedule: Q01DX009 (ip), vehicle: Klucel (hydroxypropylcellulose) (HPC)
[15] = dose: 200.0 mg/kg/injection, schedule: Q04DX003 (ip), vehicle: Klucel (hydroxypropylcellulose) (HPC)
[16] = dose: 400.0 mg/kg/injection, schedule: Q01DX001 (ip), vehicle: other
[17] = dose: 400.0 mg/kg/injection, schedule: Q04DX003 (ip), vehicle: Klucel (hydroxypropylcellulose) (HPC)
[18] = dose: 400.0 mg/kg/injection, schedule: Q01DX009 (ip), vehicle: Klucel (hydroxypropylcellulose) (HPC)
[19] = dose: 100.0 mg/kg/injection, schedule: Q01DX001 (ip), vehicle: Klucel (hydroxypropylcellulose) (HPC)
[20] = dose: 200.0 mg/kg/injection, schedule: Q01DX001 (ip), vehicle: Klucel (hydroxypropylcellulose) (HPC)
[21] = dose: 75.0 mg/kg/injection, schedule: Q01DX001 (ip), vehicle: saline

Measured: T/C

COc1ccc(/C=C2\N=C(c3cc(OC)c(OC)c(OC)c3)OC2=O)cc1OC
inactive: [1] 123 % of control | [2] 101 % of control | [3] 101 % of control

CC(=O)Oc1ccc(Cl)cc1
inactive: [4] 97 % of control | [5] 108 % of control | [6] 103 % of control | [7] 97 % of control | [8] 105 % of control

CCOc1cc(OCC)c(C=O)c(OCC)c1
inactive: dose: 100.0 mg/kg/injection, schedule: Q01DX009 (ip), vehicle: other 96 % of control | [9] 88 % of control | dose: 200.0 mg/kg/injection, schedule: Q01DX009 (ip), vehicle: other 94 % of control | dose: 400.0 mg/kg/injection, schedule: Q01DX001 (ip), vehicle: saline 102 % of control | dose: 400.0 mg/kg/injection, schedule: Q01DX009 (ip), vehicle: other 97 % of control

COC(=O)c1cccc(Cl)c1-c1c(Cl)cccc1C(=O)OC
inactive: [1] 96 % of control | [2] 108 % of control | [3] 92 % of control

CCCCCN(C)N=Nc1ccccc1C(N)=O
inactive: [10] 106 % of control | [11] 114 % of control | [12] 109 % of control | [13] 112 % of control | [14] 115 % of control | [15] 101 % of control | [16] 115 % of control | [17] 112 % of control

CCCCCCC(C)O[Si](C)c1ccc(-c2ccccc2)cc1 (centres undefined)
inactive: [4] 100 % of control | [5] 93 % of control | [6] 105 % of control | [7] 94 % of control | dose: 400.0 mg/kg/injection, schedule: Q01DX009 (ip), vehicle: saline with Tween-80 102 % of control | [8] 100 % of control

CCOC(=O)c1ccc(NC(=O)Nc2cccc(C(F)(F)F)c2)cc1
inactive: [11] 92 % of control | [14] 90 % of control

CNCCOC
inactive: dose: 100.0 mg/kg/injection, schedule: Q04DX002 (ip), vehicle: saline 98 % of control

CCS(=O)(=O)C(=CN(C)C)S(=O)(=O)CC
inactive: dose: 75.0 mg/kg/injection, schedule: Q04DX003 (ip), vehicle: saline 97 % of control | dose: 150.0 mg/kg/injection, schedule: Q04DX003 (ip), vehicle: saline 97 % of control | dose: 300.0 mg/kg/injection, schedule: Q04DX003 (ip), vehicle: saline 92 % of control

COC(=O)c1ccccc1-c1ccccc1C(=O)O
inactive: dose: 44.0 mg/kg/injection, schedule: Q01DX001 (ip), vehicle: other 101 % of control | dose: 66.0 mg/kg/injection, schedule: Q01DX001 (ip), vehicle: other 106 % of control | [10] 93 % of control | dose: 150.0 mg/kg/injection, schedule: Q01DX001 (ip), vehicle: other 95 % of control | [13] 98 % of control | [16] 98 % of control

O=C1OC(=O)C2C3OC(C(Br)C3Br)C12 (centres undefined)
inactive: dose: 16.0 mg/kg/injection, schedule: Q04DX003 (ip), vehicle: saline 100 % of control | dose: 37.5 mg/kg/injection, schedule: Q04DX003 (ip), vehicle: saline 95 % of control | dose: 50.0 mg/kg/injection, schedule: Q04DX003 (ip), vehicle: saline 101 % of control | dose: 100.0 mg/kg/injection, schedule: Q04DX003 (ip), vehicle: saline 100 % of control and 90 % of control

CCOC(=O)/C(C)=C\C=C(\C)CCC=C(C)C
inactive: [11] 104 % of control | [14] 102 % of control | [18] 104 % of control

C[P+]1(CCc2ccc(Cl)cc2)CC(Br)C(Br)C1 (centres undefined)
inactive: [19] 104 % of control

Cc1c(N=Nc2ccccc2)c(=O)[nH]n1-c1ccccc1
inactive: [19] 105 % of control | [12] 111 % of control | [20] 107 % of control | [15] 106 % of control | dose: 400.0 mg/kg/injection, schedule: Q01DX001 (ip), vehicle: Klucel (hydroxypropylcellulose) (HPC) 103 % of control | [17] 96 % of control

O=C(Nc1ccc(Nc2ccccc2)cc1)Nc1cccc(C(F)(F)F)c1
inactive: dose: 100.0 mg/kg/injection, schedule: Q01DX001 (ip), vehicle: gum acacia 94 % of control and 97 % of control | dose: 100.0 mg/kg/injection, schedule: Q01DX009 (ip), vehicle: gum acacia 94 % of control and 98 % of control | dose: 100.0 mg/kg/injection, schedule: Q04DX002 (ip), vehicle: gum acacia 95 % of control | dose: 100.0 mg/kg/injection, schedule: Q04DX003 (ip), vehicle: gum acacia 100 % of control and 101 % of control | dose: 200.0 mg/kg/injection, schedule: Q01DX001 (ip), vehicle: gum acacia 97 % of control and 90 % of control | dose: 200.0 mg/kg/injection, schedule: Q01DX009 (ip), vehicle: gum acacia 98 % of control and 103 % of control | dose: 200.0 mg/kg/injection, schedule: Q04DX002 (ip), vehicle: gum acacia 93 % of control and 86 % of control | dose: 200.0 mg/kg/injection, schedule: Q04DX003 (ip), vehicle: gum acacia 94 % of control | dose: 400.0 mg/kg/injection, schedule: Q01DX001 (ip), vehicle: gum acacia 103 % of control and 87 % of control | dose: 400.0 mg/kg/injection, schedule: Q01DX009 (ip), vehicle: gum acacia 97 % of control and 91 % of control | dose: 400.0 mg/kg/injection, schedule: Q04DX002 (ip), vehicle: gum acacia 100 % of control | dose: 400.0 mg/kg/injection, schedule: Q04DX003 (ip), vehicle: gum acacia 95 % of control and 96 % of control

C(=C\c1ccccc1)/C[n+]1cccc2ccccc21
inactive: [21] 89 % of control

OCC1OC(n2nnc3c(=S)nc[nH]c32)C(O)C1O (centres undefined)
inactive: dose: 3.3 mg/kg/injection, schedule: Q01DX009 (ip), vehicle: saline 101 % of control | dose: 5.0 mg/kg/injection, schedule: Q01DX009 (ip), vehicle: saline 95 % of control | dose: 7.5 mg/kg/injection, schedule: Q01DX009 (ip), vehicle: saline 94 % of control | dose: 11.25 mg/kg/injection, schedule: Q01DX009 (ip), vehicle: saline 101 % of control | dose: 15.0 mg/kg/injection, schedule: Q01DX001 (ip), vehicle: saline 96 % of control | dose: 18.0 mg/kg/injection, schedule: Q01DX009 (ip), vehicle: saline 106 % of control | dose: 25.0 mg/kg/injection, schedule: Q01DX001 (ip), vehicle: saline 98 % of control and 100 % of control | dose: 27.0 mg/kg/injection, schedule: Q01DX009 (ip), vehicle: saline 101 % of control | dose: 38.0 mg/kg/injection, schedule: Q01DX001 (ip), vehicle: saline 94 % of control | [21] 102 % of control | dose: 100.0 mg/kg/injection, schedule: Q01DX001 (ip), vehicle: saline 94 % of control and 98 % of control and 106 % of control | [9] 110 % of control

C=CCOC(=O)Nc1ccccc1
inactive: [19] 92 % of control and 90 % of control | [11] 106 % of control | [20] 93 % of control and 94 % of control | [14] 95 % of control | dose: 300.0 mg/kg/injection, schedule: Q01DX001 (ip), vehicle: Klucel (hydroxypropylcellulose) (HPC) 97 % of control | [18] 101 % of control

C[S+]1Cc2ccccc2C1
inactive: [5] 106 % of control | [7] 104 % of control

Source: PubChem BioAssay AID248 (DTP/NCI, 2004)
